# Measured values: PubChem BioAssay (NCI)
#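 Growth conditions: 96-well plates. Treatment: test compound, 48 hours, 5 concentrations. Analysis: linear interpolation between bracketing concentrations; unreached endpoints set to highest concentration. TGI: concentration producing complete growth inhibition.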
# Key:
# Assay in all cases: NCI-60 cell line screen, 48 h
# [1] = system: SF-268 CNS
# [2] = system: HT29 colon
# [3] = system: NCI-H522 lung
# [4] = system: HL-60(TB) leukemia
# [5] = system: NCI-H23 lung
# [6] = system: NCI-H226 lung
# [7] = system: OVCAR-5 ovarian
# [8] = system: SK-MEL-5 melanoma
# [9] = system: MCF7 breast
# [10] = system: A549 NSCLC
# [11] = system: SF-539 CNS
# [12] = system: OVCAR-8 ovarian
# [13] = system: HCT-116 colon
# [14] = system: HS 578T breast
# [15] = system: MALME-3M melanoma
# [16] = system: ACHN renal
# [17] = system: UACC-62 melanoma
# [18] = system: HCT-15 colon
# [19] = system: NCI/ADR-RES ovarian
# [20] = system: RXF 393 renal
# [21] = system: 786-0 renal
# [22] = system: U251 CNS
# [23] = system: UO-31 renal
# [24] = system: OVCAR-4 ovarian
# [25] = system: COLO 205 colon
# [26] = system: HOP-92 NSCLC
# [27] = system: MOLT-4 leukemia
# [28] = system: K-562 leukemia
# [29] = system: DU-145 prostate
# [30] = system: HCC-2998 colon
# [31] = system: NCI-H460 lung
# [32] = system: SNB-75 CNS
# [33] = system: SNB-19 CNS
# [34] = system: TK-10 renal
# [35] = system: SN12C renal
# [36] = system: EKVX NSCLC
# [37] = system: SW-620 colon
# [38] = system: M14 melanoma
# [39] = system: T-47D breast
# [40] = system: UACC-257 melanoma
# [41] = system: SK-MEL-2 melanoma
# [42] = system: MDA-MB-231 breast
# [43] = system: HOP-62 NSCLC
# [44] = system: PC-3 prostate
# [45] = system: BT-549 breast
# [46] = system: MDA-MB-435
# [47] = system: LOX IMVI melanoma
# [48] = system: SK-OV-3 ovarian
# [49] = system: SK-MEL-28 melanoma
# [50] = system: A498 renal
# [51] = system: SF-295 CNS
# [52] = system: CAKI-1 renal
# [53] = system: OVCAR-3 ovarian
# [54] = system: RPMI-8226 leukemia
# [55] = system: CCRF-CEM leukemia
# [56] = system: KM12 colon
# [57] = system: IGROV1 ovarian
structure (smiles),measurement,setting,value
CCCCC(CCCC)=NNC(=S)SC,TGI,[1],> 100 µM
same,TGI,[2],> 100 µM
same,TGI,[3],48.8 µM
same,TGI,[4],50.2 µM
same,TGI,[5],> 100 µM
same,TGI,[6],57.6 µM
same,TGI,[7],> 100 µM
same,TGI,[8],39.3 µM
same,TGI,[9],> 100 µM
same,TGI,[10],> 100 µM
same,TGI,[11],67 µM
same,TGI,[12],44.4 µM
same,TGI,[13],38.6 µM
same,TGI,[14],> 100 µM
same,TGI,[15],37.4 µM
same,TGI,[16],> 100 µM
same,TGI,[17],57.8 µM
same,TGI,[18],> 100 µM
same,TGI,[19],> 100 µM
same,TGI,[20],> 100 µM
same,TGI,[21],> 100 µM
same,TGI,[22],> 100 µM
same,TGI,[23],> 100 µM
same,TGI,[24],66.3 µM
same,TGI,[25],> 100 µM
same,TGI,[26],> 100 µM
same,TGI,[27],43.6 µM
same,TGI,[28],> 100 µM
same,TGI,[29],> 100 µM
same,TGI,[30],54.4 µM
same,TGI,[31],> 100 µM
same,TGI,[32],> 100 µM
same,TGI,[33],> 100 µM
same,TGI,[34],69.1 µM
same,TGI,[35],> 100 µM
same,TGI,[36],> 100 µM
same,TGI,[37],> 100 µM
same,TGI,[38],44.3 µM
same,TGI,[39],74.1 µM
same,TGI,[40],75.7 µM
same,TGI,[41],> 100 µM
same,TGI,[42],> 100 µM
same,TGI,[43],> 100 µM
same,TGI,[44],> 100 µM
same,TGI,[45],> 100 µM
same,TGI,[46],47 µM
same,TGI,[47],> 100 µM
same,TGI,[48],> 100 µM
same,TGI,[49],> 100 µM
same,TGI,[50],> 100 µM
CCOc1c(OC)cc(C2c3cc4c(c(OCC)c3CC3COC(=O)C32)OCO4)cc1OC (stereo not given),TGI,[1],92.6 µM
same,TGI,[2],10.4 µM
same,TGI,[3],16.8 µM
same,TGI,[5],5.9 µM
same,TGI,[6],46.9 µM
same,TGI,[7],15.9 µM
same,TGI,[51],3.97 µM
same,TGI,[8],14.5 µM
same,TGI,[52],55.7 µM
same,TGI,[9],> 100 µM
same,TGI,[10],14.2 µM
same,TGI,[11],4.91 µM
same,TGI,[12],6.38 µM
same,TGI,[13],11.5 µM
same,TGI,[14],21.9 µM
same,TGI,[15],79.8 µM
same,TGI,[16],20.9 µM
same,TGI,[17],2.27 µM
same,TGI,[18],2.68 µM
same,TGI,[19],7.17 µM
same,TGI,[20],> 100 µM
same,TGI,[21],22.2 µM
same,TGI,[22],11.6 µM
same,TGI,[23],27.3 µM
same,TGI,[24],> 100 µM
same,TGI,[25],6.98 µM
same,TGI,[53],5.14 µM
same,TGI,[26],> 100 µM
same,TGI,[27],7.69 µM
same,TGI,[28],19.4 µM
same,TGI,[54],59.3 µM
same,TGI,[29],12.1 µM
same,TGI,[31],> 100 µM
same,TGI,[32],> 100 µM
same,TGI,[33],> 100 µM
same,TGI,[34],69.6 µM
same,TGI,[35],6.9 µM
same,TGI,[36],> 100 µM
same,TGI,[37],> 100 µM
same,TGI,[55],30.1 µM
same,TGI,[38],43.3 µM
same,TGI,[39],> 100 µM
same,TGI,[40],49.1 µM
same,TGI,[41],> 100 µM
same,TGI,[42],6.47 µM
same,TGI,[43],17.8 µM
same,TGI,[44],> 100 µM
same,TGI,[45],64 µM
same,TGI,[56],11.3 µM
same,TGI,[46],0.898 µM
same,TGI,[47],14 µM
same,TGI,[48],> 100 µM
same,TGI,[49],> 100 µM
same,TGI,[57],80.5 µM
same,TGI,[50],67.4 µM
